This is an account of results in patent US10183944B2 (Asana Biosciences, LLC, priority 2011, dated 2019).

Broadly, the IC50 is the point on the concentration scale where inhibition reaches its midpoint.

Where a name gives a salt, the structure may show the parent alone.

Assay [1] has as its target Syk (356-635 amino acids) catalytic domain (Homo sapiens (Human), UniProt P43405). Briefly: Inhibition of enzymatic Syk kinase activity (radiometric). Type of assay: biochemical. The note with it: read-out: IC50 Syk. From the text: The objective of this assay was to examine by radiometric method the ability of compounds to inhibit Syk kinase enzyme. Syk is capable of phosphorylating substrates such as VAV, LAT, SLP-76, which in turn activate MAPK, PLCγ signaling pathways. […] This in vitro assay tests the ability of syk to phosphorylate a substrate peptide in the presence of ATP. By using a radio-labeled form of ATP, it is possible to measure the amount of phosphorylation of the substrate. The enzyme transfers a radio-labeled phosphate group from γ32 P labeled ATP to pG4T. Briefly the enzyme was incubated with substrate, radio-labeled & cold ATP and substrate in buffer with or without compounds. At the end of the reaction, the reaction mixture was transferred on to a Multiscreen filter plate and unreacted γ^32P ATP was washed off. The filter plate was dried and the radioactivity was measured on a scintillation counter to estimate the incorporated radioactivity on the substrate. The percent inhibition of activity of the enzyme was calculated by comparing counts in the presence and absence of compounds. […] 2.5 μL of 10% DMSO or compound in 10% DMSO was added to the wells in a 96 well V-bottom plate. Optimized concentration of in-house Syk enzyme (different batches of Syk (356-635) kinase domain) were used at optimized concentrations) ranging from 0.035 ng to 7.5 ng/reaction diluted in assay buffer was added to a total volume of 12.5 μL). Compound and protein were incubated for 30 minutes at room temperature on a plate shaker. Ten μL of a substrate mix containing 100 μM ATP (0.25 μL), γ-P^32-ATP (0.1 μL; 10 μCi/μL), pG4T (0.25 μL; 10 mg/mL) and 1× assay buffer (9.4 μL) was added to all the wells. Samples were incubated at 30° C. for 10 minutes after mixing. The reaction was stopped by the addition of 8N HCl (13 μL) containing 100 mM ATP. Thirty μL of sample was transferred to the center of a 2×2 cm^2 Whatman® P81 chromatography paper. After allowing the sample to dry for one minute, the assay squares were washed 3 times for 5 minutes each in ortho-phosphoric acid (0.5%) and once in acetone. Assay squares were dried for 15 minutes in a 30° C. oven and transferred to 96 well optiplate. Microscint-O® reagent (100 μL, Perkin Elmer) was added to each well, the plate was sealed with Topseal®-A microplates and incubated for 10 minutes at room temperature at very low speed on rocker and the plate was read in the Topcount® NXL instrument. The following calculations were made: Fold induction=radioactivity counts (uncorrected values) in positive control/substrate control.

Assay [2] addresses JAK2 (Homo sapiens (Human), UniProt O60674). The assay can be described thus: Inhibition of enzymatic JAK2 kinase activity (TR-FRET). It counts as biochemical. The note with it: read-out: IC50 JAK. From the text:
The objective of this assay was to screen compounds in a Time-resolved fluorescence resonance energy transfer (TR-FRET) Enzymatic assay method for their potential to inhibit JAK2 (Janus kinase) activity.
TR-FRET assays are homogeneous proximity assays where Eu-labeled antiphosphotyrosine antibody binds to the phosphorylated substrates labeled with Ulight fluorescence acceptor. Eu can transfer energy to Ulight accepter in the complex and the interaction of two dye-labeled binding partners is detected by the energy transfer between a donor and an acceptor dye, and the subsequent light emission by the acceptor dye. The intensity of the light emission is proportional to the level of Ulight peptide phosphorylation.
Two μL of 10% DMSO in blank, substrate control and positive control wells and 2 μL of test compound in test wells was added. Thirteen μL of assay buffer in blank and substrate control wells and 13 μL of Enzyme buffer mix in positive and test wells was added. The reaction mixture was incubated for 30 minutes at RT on a plate shaker. Ultra Light-pGT substrate (5 μL) [poly Glu-Tyr (4:1) labeled with U Light TM dye, a tyrosine kinase substrate] and ATP mix was added to all wells. The reaction plate was incubated for 60 minutes at RT on a plate shaker. The reaction was stopped by adding 40 mM EDTA (10 μL) in buffer. Ten μL of antibody was added to all the wells. The plate was read in a Wallac® 1420 Multilabel Counter Victor 3 instrument (Ex: 340 nm Em: 615 & 665 nm) The following calculations were made:
F@ 665 Value-Buffer blank
F@ 615 Value-Buffer blank
Ratio of F@665/F@615-Substrate Blank
% Activity=(Test Sample/Positive control)*100%
Inhibition=(100−% Activity)
Background: Time-resolved FRET reads energy transfer from a long-lived donor to a nearby acceptor.

Chain of JAK2 (O60674 808-1132): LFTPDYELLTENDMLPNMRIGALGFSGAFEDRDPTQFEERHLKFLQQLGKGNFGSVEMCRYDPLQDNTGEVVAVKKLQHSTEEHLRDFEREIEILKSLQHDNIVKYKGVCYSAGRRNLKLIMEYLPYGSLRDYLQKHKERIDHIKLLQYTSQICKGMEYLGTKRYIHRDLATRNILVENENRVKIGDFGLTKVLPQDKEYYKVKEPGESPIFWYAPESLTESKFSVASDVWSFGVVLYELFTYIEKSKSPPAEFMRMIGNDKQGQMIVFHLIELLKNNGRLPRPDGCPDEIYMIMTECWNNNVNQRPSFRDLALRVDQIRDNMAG

Take `COC(=O)c1ccc(-c2nc(Nc3ccc(CN4CCNCC4)cc3)c3c(=O)[nH]ncc3n2)cc1` [Example 2, Methyl 4-(5-oxo-4-(4-(piperazin-1-ylmethyl)phenylamino)-5,6-dihydropyrimido[4,5-d]pyridazin-2-yl)benzoate hydrochloride]: the figures for the IC50 in assay [1] and in assay [2] were less than 100 nM and greater than 100 nM, respectively.
For `O=c1[nH]ncc2nc(N3CCOCC3)nc(Nc3ccc(CN4CCNCC4)cc3)c12` [Example 3, 2-morpholino-4-(4-(piperazin-1-ylmethyl)phenylamino)pyrimido[4,5-d]pyridazin-5(6H)-one hydrochloride], the figures for the IC50 in assay [1] and in assay [2] were greater than 100 nM and less than 100 nM, respectively.
Consider `O=c1[nH]ncc2nc(-c3ccccc3)nc(Nc3ccc(CN4CCOCC4)cc3)c12` [Example 4, 4-(4-(morpholinomethyl)phenylamino)-2-phenylpyrimido[4,5-d]pyridazin-5(6H)-one], for which the figures for the IC50 in assay [1] and in assay [2] were less than 100 nM and less than 50 nM, respectively.
For `O=C(O)CN1CCN(c2ccc(Nc3nc(-c4ccccc4)nc4cn[nH]c(=O)c34)cc2)CC1` [Example 12, 2-(4-(4-(5-oxo-2-phenyl-5,6-dihydropyrimido[4,5-d]pyridazin-4-ylamino)phenyl)piperazin-1-yl) acetic acid], the IC50 was less than 50 nM in assay [1] and less than 10 nM in assay [2].
In the case of `O=c1[nH]ncc2nc(N3CCC4(CC3)CC4)nc(Nc3ccc(N4CCOCC4)cc3)c12` [Example 18, 4-(4-morpholinophenylamino)-2-(6-azaspiro[2.5]octan-6-yl)pyrimido[4,5-d]pyridazin-5(6H)-one], the IC50 in assay [1] was greater than 100 nM; in assay [2], less than 50 nM.
For `O=C(O)C1CC12CCN(c1ccc(Nc3nc(-c4ccccc4)nc4cn[nH]c(=O)c34)cc1)CC2` (stereo not shown) [Example 22, sodium 6-(4-(5-oxo-2-phenyl-5,6-dihydropyrimido[4,5-d]pyridazin-4-ylamino)phenyl)-6-azaspiro[2.5]octane-1-carboxylate], the half-maximal inhibitory concentration (IC50) in assay [1] was less than 100 nM; in assay [2], less than 50 nM.
On to `O=c1[nH]ncc2nc(-c3ccccc3)nc(Nc3ccc(CN4CCC5(CC4)COC5)cc3)c12` [Example 23, 4-(4-(2-oxa-7-azaspiro[3.5]nonan-7-ylmethyl)phenylamino)-2-phenylpyrimido[4,5-d]pyridazin-5(6H)-one], for which the IC50 in assay [1] was less than 50 nM; in assay [2] it was less than 100 nM.
Turning to `O=C(O)c1ccc(-c2nc(Nc3ccc(CN4CCNCC4)cc3)c3c(=O)[nH]ncc3n2)cc1` [Example 27, 4-(5-oxo-4-(4-(piperazin-1-ylmethyl)phenylamino)-5,6-dihydropyrimido[4,5-d]pyridazin-2-yl)benzoic acid hydrochloride], the IC50 in assay [1] and in assay [2] was greater than 100 nM throughout.
On to `CCN1CCN(c2ccc(Nc3nc(-c4ccc(OC(F)(F)F)cc4)nc4cn[nH]c(=O)c34)cc2)CC1` [Example 28, 4-(4-(4-ethylpiperazin-1-yl)phenylamino)-2-(4-(trifluoromethoxy)phenyl) pyrimido[4,5-d]pyridazin-5(6H)-one], for which the IC50 in assay [1] and in assay [2] was greater than 100 nM in each case.
`COc1cccc(-c2nc(Nc3ccc(CN4CCNCC4)cc3)c3c(=O)[nH]ncc3n2)c1` [Example 31, 2-(3-methoxyphenyl)-4-(4-(piperazin-1-ylmethyl)phenylamino)pyrimido[4,5-d]pyridazin-5(6H)-one hydrochloride]: the IC50 is less than 50 nM in assay [1] and greater than 100 nM in assay [2].
For the compound `O=c1[nH]ncc2nc(N3CCNCC3)nc(Nc3ccc(CN4CCNCC4)cc3)c12` [Example 32, 2-(piperazin-1-yl)-4-(4-(piperazin-1-ylmethyl)phenylamino)pyrimido[4,5-d]pyridazin-5(6H)-one dihydrochloride], the IC50 in assay [1] is less than 100 nM; in assay [2], greater than 100 nM.
For `COc1ccccc1-c1nc(Nc2ccc(CN3CCNCC3)cc2)c2c(=O)[nH]ncc2n1` [Example 36, 2-(2-methoxyphenyl)-4-(4-(piperazin-1-ylmethyl)phenylamino)pyrimido[4,5-d]pyridazin-5(6H)-one hydrochloride], the values for the IC50 in assay [1] and in assay [2] were greater than 100 nM and less than 100 nM, respectively.
In the case of `CCN1CCN(c2ccc(Nc3nc(-c4ccsc4)nc4cn[nH]c(=O)c34)cc2)CC1` [Example 37, 4-(4-(4-ethylpiperazin-1-yl)phenylamino)-2-(thiophen-3-yl)pyrimido[4,5-d]pyridazin-5(6H)-one hydrochloride], the figures for the IC50 in assay [1] and in assay [2] were less than 10 nM and less than 100 nM, respectively.
With `O=c1[nH]ncc2nc(-c3ccc(Cl)cc3)nc(Nc3ccc(CN4CCNCC4)cc3)c12` [Example 40, 2-(4-chlorophenyl)-4-(4-(piperazin-1-ylmethyl)phenylamino)pyrimido[4,5-d]pyridazin-5(6H)-one hydrochloride], the figures for the IC50 in assay [1] and in assay [2] were less than 50 nM and greater than 100 nM, respectively.
Consider `COc1ccc(-c2nc(Nc3ccc(CN4CCNCC4)cc3)c3c(=O)[nH]ncc3n2)cc1` [Example 41, 2-(4-methoxyphenyl)-4-(4-(piperazin-1-ylmethyl)phenylamino)pyrimido[4,5-d]pyridazin-5(6H)-one hydrochloride], for which the 50% inhibitory concentration (IC50) in assay [1] was less than 100 nM; in assay [2], greater than 100 nM.
On to `COc1cccc(Nc2nc(N3CCC(CC#N)CC3)nc3cn[nH]c(=O)c23)c1` [Example 321, 2-(1-(4-((3-methoxyphenyl)amino)-5-oxo-5,6-dihydropyrimido[4,5-d]pyridazin-2-yl)piperidin-4-yl)acetonitrile], for which the IC50 in assay [1] is greater than 100 nM.
`COc1cc(Nc2nc(N3CCC(CC#N)CC3)nc3cn[nH]c(=O)c23)cc(OC)c1OC` [Example 326, 2-(1-(5-oxo-4-((3,4,5-trimethoxyphenyl)amino)-5,6-dihydropyrimido[4,5-d]pyridazin-2-yl)piperidin-4-yl) acetonitrile]: in assay [1], the IC50 was greater than 100 nM.
As for `O=c1[nH]ncc2nc(N3CCCCCC3)nc(Nc3ccc4c(c3)OCO4)c12` [Example 327, 2-(azepan-1-yl)-4-(benzo[d][1,3]dioxol-5-ylamino)pyrimido[4,5-d]pyridazin-5(6H)-one], the IC50 in assay [1] is greater than 100 nM.
As to `N#CCC1CCN(c2nc(Nc3ccc4c(c3)OCO4)c3c(=O)[nH]ncc3n2)CC1` [Example 328, 2-(1-(4-(benzo[d][1,3]dioxol-5-ylamino)-5-oxo-5,6-dihydropyrimido[4,5-d]pyridazin-2-yl)piperidin-4-yl) acetonitrile], in assay [1], the half-maximal inhibitory concentration (IC50) is greater than 100 nM.
`N#CCC1CCN(c2nc(Nc3ccc(N4CCC(O)CC4)cc3)c3c(=O)n(COP(=O)(O)O)ncc3n2)CC1` [Example 330, sodium (2-(4-(cyanomethyl)piperidin-1-yl)-4-((4-(4-hydroxypiperidin-1-yl)phenyl)amino)-5-oxopyrimido[4,5-d]pyridazin-6(5H)-yl)methyl phosphate]: in assay [1], the IC50 was greater than 100 nM.
Take `N#CCC1CCN(c2nc(Nc3ccc(CO)cc3)c3c(=O)[nH]ncc3n2)CC1` [Example 332, 2-(1-(4-((4-(hydroxymethyl)phenyl)amino)-5-oxo-5,6-dihydropyrimido[4,5-d]pyridazin-2-yl)piperidin-4-yl) acetonitrile]: the 50% inhibitory concentration (IC50) in assay [1] is less than 100 nM.
For `CS(=O)(=O)c1ccc(Nc2nc(N3CCC(CC#N)CC3)nc3cn[nH]c(=O)c23)cc1` [Example 333, 2-(1-(4-((4-(methylsulfonyl)phenyl)amino)-5-oxo-5,6-dihydropyrimido[4,5-d]pyridazin-2-yl)piperidin-4-yl) acetonitrile], in assay [1], the IC50 was greater than 100 nM.
